The text below walks through data of US12012390B2, “Flavone compounds for the treatment and prophylaxis of hepatitis B virus disease” (priority 2018, dated 2024).

This experiment has as its system HBV in primary human hepatocytes (PHH). Description: Cryopreserved primary human hepatocytes (PHH) HBV infection assay. In kind it is cell-based. Conditions: Hepatitis B virus, Hepatocyte, 216 h, HBV-infected cryopreserved PHH, 9 days post-compound treatment, extracellular HBsAg by CLIA; read-out: HBsAg IC50. A digest of the protocol: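 Cryopreserved PHH (5.8×10^4 cells/well) were infected with 5.8×10^6 HBV genome equivalents in 4% PEG8000/1% DMSO medium. Extracellular HBsAg was measured by CLIA and HBV DNA by qPCR, with IC50 from 4-parameter logistic fits.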

Consider `O=C(O)C1CC(OCCOc2ccc(-c3cc(=O)c4cccc(Cl)c4o3)cc2)C1` (stereo not shown) [Example 1, 3-[2-[4-(8-chloro-4-oxo-chromen-2-yl)phenoxy]ethoxy]cyclobutanecarboxylic acid], for which the half-inhibitory concentration (IC50) came out at 0.13 µM.

In general, IC50 refers to the concentration that inhibits the measured activity by half.
